# Key:
# [1] = Relative effect of MgSt on drug apparent solubility (shake-flask, physical mixtures); conditions: phosphate buffer pH 6.8
# Method: Drug solubility studies in the absence and presence of excipient were performed in triplicate using the shake-flask method [41]. Drug excess amount and 2% w/w or 5% w/w of each excipient were weighed and placed in centrifuge tubes. […] The physical mixtures were vortexed for 3 min. Five millilitres of each medium was added in the tubes and the samples were placed in a shaking water bath (37°C, 200 strokes per minute (spm)). […] Filter adsorption studies were performed prior in triplicate for each drug. […] Filtered samples were further diluted (if needed) with the corresponding medium and analysed by HPLC (Supplementary Table I). […] Drug quantification was made based on calibration curves. Standards were formulated from concentrated stock solutions consisting of drug dissolved in MeOH. As changes in the pH of solutions by the presence of the dissolved drug [34] or MgSt [43, 44] may affect drug solubility, the pH of samples after the completion of each experiment was measured. Drug solubility was calculated based on the sample drug concentration measured.
# The relative effect (RE) of each excipient on drug apparent solubility was calculated based on Eq.
# [2] = parameters: method as in earlier work; conditions: based on BCS classification (20); ref (24), (26), (28), (29), (31), (34), (35), (38); cited from earlier work
Relative effect (RE) on drug solubility at 24 h ([1]; 2% Ligamed MF-2-V),Relative effect (RE) on drug solubility at 24 h ([1]; 2% Ligamed MF-3-V),SMILES,Solubility (BCS-based class) [2]
29%,27%,"NC(=O)N1c2ccccc2C=Cc2ccccc21 [CBZ, Carbamazepine]",Low (31)
–,–,"OCCN(CCO)c1nc(N2CCCCC2)c2nc(N(CCO)CCO)nc(N3CCCCC3)c2n1 [DPL, Dipyridamole]",Low (34)
–,–,"CCC(C)n1ncn(-c2ccc(N3CCN(c4ccc(OCC5COC(Cn6cncn6)(c6ccc(Cl)cc6Cl)O5)cc4)CC3)cc2)c1=O (centres unmarked) [ITZ, Itraconazole]",Low (38)
